Entries after “also recorded” stand apart in the source; their conditions may differ.
What was measured:
[1] = molecular target: cT1R1-NTD (N-terminal domain of the cat T1R1 taste receptor) (Felis catus, UniProt A0ABI7Z2I4); test: Ligand binding assay by intrinsic tryptophan fluorescence of refolded cT1R1-NTD; settings: for synergetic effect of IMP on L-amino acid binding (shift of binding curve): 0.3 μM IMP final concentration; for maximal amplitude of cT1R1-NTD fluorescence induced by the amino acid in presence of IMP: compared to the other tested L-amino acids
Sequence of cT1R1-NTD (N-terminal domain of the cat T1R1 taste receptor) (A0ABI7Z2I4 entry or part of it): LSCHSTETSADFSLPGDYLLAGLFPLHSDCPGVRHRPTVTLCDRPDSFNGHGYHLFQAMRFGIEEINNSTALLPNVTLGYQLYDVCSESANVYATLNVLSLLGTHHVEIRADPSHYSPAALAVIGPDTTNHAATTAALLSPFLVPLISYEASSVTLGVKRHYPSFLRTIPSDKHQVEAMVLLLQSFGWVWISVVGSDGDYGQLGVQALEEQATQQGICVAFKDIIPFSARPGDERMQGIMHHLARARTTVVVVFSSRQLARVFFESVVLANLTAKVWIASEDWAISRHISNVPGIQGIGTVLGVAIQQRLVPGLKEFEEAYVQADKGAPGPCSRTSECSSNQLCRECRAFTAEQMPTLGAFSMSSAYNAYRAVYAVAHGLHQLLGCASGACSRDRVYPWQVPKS
Procedure: The intrinsic fluorescence of cT1R1-NTD was measured as previously described by Nie et al. using a Cary Eclipse spectrofluorometer (Varian Instruments) equipped with a Peltier temperature control unit. Sample proteins were excited at 295 nm and emission spectra were recorded from 300 to 400 nm, with 5-nm and 10-nm bandwidth for emission and excitation, respectively. For titration experiments, fluorescence spectra were recorded using 0.5 μM protein solution in 50 mM Tris-HCl pH 8.0, 150 mM NaCl, 1mM DTT and 0.1 mM DDM. Ligand solutions were freshly prepared in the same buffer. Successive aliquots of potential ligands were added to 400 μL of cT1R1-NTD solution. The temperature was kept constant at 20°C. Fluorescence measurements were corrected for dilution, bleaching and nonspecific buffer quenching. Kd values and standard errors were calculated from a plot of the ratio between the fluorescence intensity variation and the maximum of fluorescence intensity variation versus concentration of total ligand, obtained with a standard non-linear regression method and using one site saturation ligand binding equation using SigmaPlot software. […] The Kd values of ligand-receptor interactions were determined using Eq (1) ΔF/ΔFmax = Bmax×[L]/(Kd+[L]) (1) Where Kd value is the apparent dissociation constant, ΔF is the difference between the fluorescence intensity at a given concentration of ligand and the fluorescence intensity in the absence of ligand, and ΔFmax is the difference at infinite ligand concentration [L], Bmax is the maximum fluorescence signal, [L] corresponds to the concentration of ligands. The reported Kd values are the average of more than nine measurements performed on at least three independently refolded protein samples. […] Statistical analyses: Dunnett’s test was used to determine the statistical significance between data means.

[2] = molecular target: human T1R3-NTD; parameters: method as in PMID 22450161, PMID 22909933; settings: cited from earlier work
[3] = ligand alone, no IMP, Fig 6: 100 μM final concentration, excitation 295 nm, emission 340 nm

| Structure (SMILES) | synergetic effect of IMP on L-amino acid binding (shift of binding curve) [1] | effect on cT1R1-NTD intrinsic fluorescence [1, 3] | other results |
| --- | --- | --- | --- |
| C[C@H](N)C(=O)O [L-Ala, L-alanine] | relatively modest | saturable intrinsic fluorescent enhancement | – |
| N=C(N)NCCC[C@H](N)C(=O)O [L-Arg] | relatively modest | saturable intrinsic fluorescent enhancement | maximal amplitude of cT1R1-NTD fluorescence induced by the amino acid in presence of IMP ([1]; 0.3 μM IMP): increased |
| CC[C@H](C)[C@H](N)C(=O)O [L-Ile] | relatively modest | saturable intrinsic fluorescent enhancement | – |
| Nc1nc2c(ncn2[C@@H]2O[C@H](COP(=O)(O)O)[C@@H](O)[C@H]2O)c(=O)[nH]1 [GMP, guanosine-5’-monophosphate] | – | – | effect on cT1R1-NTD intrinsic fluorescence ([1]; GMP alone at low concentrations (below 1 μM)): fluorescence enhancement |
| N[C@@H](CS)C(=O)O [L-Cys] | – | no effect; also recorded: does not affect cT1R1-NTD fluorescence | fluorescence enhancement of cT1R1-NTD generated by 0.3 μM IMP in the presence of the amino acid ([1]; 0.3 μM IMP, compared with absence of L-Cys): not significantly different |
| N[C@@H](Cc1c[nH]cn1)C(=O)O [L-His, L-histidine] | more pronounced | saturable intrinsic fluorescent enhancement | maximal amplitude of cT1R1-NTD fluorescence induced by the amino acid in presence of IMP ([1]; 0.3 μM IMP): increased |
| OC[C@H]1O[C@H](O[C@]2(CCl)O[C@H](CCl)[C@@H](O)[C@@H]2O)[C@H](O)[C@@H](O)[C@H]1Cl [sucralose] | – | – | binding affinity [2]: millimolar range |

— paper PMC5662223, “Biophysical and functional characterization of the N-terminal domain of the cat T1R1 umami taste receptor expressed in Escherichia coli” (PLoS ONE, 2017)
